These results are taken from US20100099719A1, “COMPOSITION AND METHOD FOR TREATING PROTEINURIA” (DIEREPHARMA, INC., priority 2008, published 2010).

SMILES strings stand for the structures. Where two headings read alike, the source gives them in different places.

The subject of one assay is p38. Nature of the assay: LPS-induced p38 activation in RAW264.7 macrophages (Western blot, phospho-p38). The class given is cell-based, mouse. The note with it: RAW264.7 cells pretreated 100 and 500 μg/ml, 4 h; LPS 10 ng/ml, 30 min. On the procedure:
Mouse macrophage RAW264.7 cells were pretreated with AKF-PD (100 and 500 μg/ml, 4 h) or PFD (100 and 500 μg/ml, 4 h) and then exposed to LPS (10 ng/ml, 30 min). Total cell lysates were processed by SDS-PAGE and membranes blotted with a phosphospecific p38 and normalized with p38.
The MAPK family of proteins comprises of three-tiered cascades of Erk1/2, p38, and JNK. The p38 kinase is activated by phosphorylation of a conserved Thr-Gly-Tyr motif in the activation loop. The activated p38 is then able to phosphorylate a wide variety of targets in the cytoplasm and nucleus, resulting in cellular responses such as apoptosis, inflammation, and fibrosis. We first analyzed the anti-inflammatory properties of AKF-PD in p38 signaling in lipopolysaccharide (LPS)-stimulated mouse macrophages RAW264.7 cells. Cells are pre-treated with AKF-PD or pirfenidone (PFD) for 4 hours and then stimulated by treatment with LPS. […] No effects on total p38 protein levels were observed showing that AKF-PD and PFD have no effect on protein stability. […] The potential upstream targets for AKF-PD include upstream kinases MAPKK3 (MKK3) and MAPKK6 (MKK6).

Assay [1] relates to mild chronic anti-GBM nephritis in rats. The note with it: rat model of nephritis; cited from earlier work.
Another assay relates to TNF-α mRNA. Nature of the assay: LPS-stimulated TNF-α mRNA synthesis in RAW264.7 macrophages (real time PCR). The note with it: LPS 10 ng/ml 20 h; for inhibition of LPS-stimulated TNF-α mRNA synthesis: dose of 500 μg/ml; for inhibition on LPS-stimulated TNF-α mRNA synthesis: pre-treated 4 h at 10, 100, 500 μg/ml. The assay is classed as cell-based, mouse. On the procedure: Mouse macrophage RAW264.7 cells were pre-treated with AKF-PD or PFD for 4 hours at the following doses: 0, 10 μg/ml, 100 μg/ml, and 500 μg/ml. Cells are then stimulated by treatment with LPS at 10 ng/ml for 20 hours. Expression of TNF-α mRNA is assayed by a quantitative real time PCR analysis using the TaqMan PCR core reagent kit (Applied Biosystems). TNF-α gene expression in the control non-treated cells was taken as 1 and regarded as control. All the other values were expressed as fold increase of the control. The mouse beta actin gene was used as endogenous control. Each column with error bar represents the mean mRNA level±SD of duplicate samples. Statistical comparisons for all three AKF-PD doses relative to control indicate p<0.01; PFD at the doses of 100 and 500 μg/ml relative to control indicate P<0.01.
We next investigated the effect of AKF-PD on TNF-α transcription.

For assay [2], the system named is patients with focal segmental glomerulosclerosis. The note with it: cited from earlier work.
In the next assay the test system is TNF-α. Nature of the assay: LPS-stimulated TNF-α protein synthesis and secretion in RAW264.7 cells (ELISA). The class given is cell-based, mouse. The note with it: LPS 100 ng/ml 8 h; for inhibition at 300 µg/mL: dose of 300 μg/ml. As to the method:
RAW264.7 cells were pre-treated with AKF-PD for 4 hours at the following doses: 0, 30 μg/ml, 100 μg/ml, and 300 μg/ml. Cells were then stimulated by the treatment with LPS at 100 ng/ml for 8 hours. Cell lysate was prepared from the harvested cells. Media from the cell culture were collected, concentrated 10-fold. Both cell lysate (B) and media (A) were subjected to ELISA assay (OptEIA™) specific for mouse TNF-α according to the manufacturer's instructions (BD Biosciences). Each column with error bar represents the average of triplicate TNF-α assay results and the standard deviation (SD). Statistical comparisons for AKF-PD treated cells relative to the controls indicate P<0.001 for secreted levels (A) at all three doses; and P<0.01 for cellular levels (B) at doses of 100 and 300 μg/ml, respectively.
The effect of AKF-PD on TNF-α protein synthesis and secretion was analyzed in LPS-stimulated RAW264.7 cells. Cells were pretreated with AKF-PD and then stimulated by LPS. Both secreted and cellular levels of TNF-α protein were determined. […] Therefore, the exposure of RAW264.7 cells to AKF-PD exerted a significant and dose-dependent suppression of levels of both cell-associated and secreted TNF-α protein.

Assay [3] has as its system streptozotocin-induced diabetic rats. Kind of assay: Streptozotocin-induced diabetic nephropathy in rats. The assay is classed as in vivo, Sprague-Dawley rats. On the procedure: Diabetic kidney disease in the rat was induced by streptozotocin (STZ) to test the effectiveness of 5-methyl-2(1H)-pyridone (AKF-PD) in preserving kidney function by reducing the level of proteinuria.
Diabetic nephropathy was induced in Sprague-Dawley rats with a single intravenous injection of STZ (45 mg/kg). Streptozotocin was injected in a single dose of 45 mg/kg, i.v., to rats (Male Sprague-Dawley rats (200-250 g). Age-matched control rats received citrate buffer and were used in parallel with diabetic animals. Two days after STZ injection, plasma glucose levels were measured. Rats having plasma glucose levels>250 mg/dL after 4 weeks were selected for the study. Control and diabetic rats were divided into two groups, consisting of 6 animals each. AKF-PD was suspended in 0.5% sodium carboxy methylcellulose (CMC). From 4 to 8 weeks after the initial STZ injection, the first group of control animals received vehicle, and the second group received a suspension of AKF-PD (500 mg/kg per day) orally. Similarly, one group of diabetic rats received vehicle and the second group received AKF-PD (500 mg/kg per day). At the end of 8th week, rats were kept individually in metabolic cages for 24 h to collect urine for the measurements. Renal function was assessed by measuring plasma and urine levels of creatinine and urea and urine albumin excretion. Plasma glucose levels were also measured at 4 weeks and at the end of the experiment to investigate the effect of AKF-PD on glucose levels. Urinary proteins were measured by Bio-Rad protein assay (Bio-Rad, Hercules, Calif.). Blood urea nitrogen and creatinine levels were measured using Beckman analyzers (BUN Analyzer II, and Creatinine Analyzer II Beckman Instruments Inc., Brea, Calif.).

A further assay has as its system rat UUO model. Nature of the assay: Unilateral ureteral obstruction (UUO) model, tubulointerstitial injury score. The note with it: UUO rats; for Tubulointerstitial injury score (TIS): 500 mg/kg/d by gavage. The assay is classed as in vivo, SD rats. As to the method: Kidney damage and fibrosis were induced by Unilateral Ureteral Obstruction in rat. The reno-protective effect of AKF-PD was evaluated in the rat UUO model.
Fixed tissues were dehydrated in graded alcohol and embedded in paraffin. Sections were stained with hematoxylin & eosin (HE) for general histology. Injury score was evaluated. On Day 7, the kidneys of rats subjected to ureteral obstruction developed a conspicuous tubulointerstitial injury characterized by tubular dilatation and atrophy, interstitial inflammation, and a marked interstitial fibrosis. The damage was more prominent on Day 15. Renal injury was ameliorated after treatments with AKF-PD as indicated by the lower tubulointerstitial injury scores and interstitial fibrosis expansion of these groups, with P<0.05 for all comparisons (Table 2).
Table 2. Comparison of histological scores for interstitial compartment. Eight weeks old male SD rats (180 g ˜220 g) were randomly divided into sham surgical group, disease model UUO group, and AKF-PD (500 mg/kg/d) group. […] The animals of the sham surgical group experienced the same surgical procedure except the ligation step. AKF-PD was administrated by gavage from one day prior to the procedure to 15 days post surgical procedure. Normal saline was administrated in a similar fashion to the rats in the groups of disease model and sham surgical. The animals were sacrificed 15 days after surgical procedure and their left kidney were removed for pathological (HE staining) examination. Histological scoring for interstitial compartment was done according to Radford's method (Predicting renal outcome in IgA nephropathy. J. Am. Soc. Nephrology, 1997; 8:199-207).

Another assay concerns rat renal fibroblasts. The note with it: in vitro; cited from earlier work.
A further assay deals with TGF-β. Kind of assay: TGF-β protein expression in kidney of rat UUO model (Western blot, densitometry). The class given is in vivo. The note with it: obstructed kidney. From the text:
A. Western analysis of TGF-β protein expression. Two rats were sacrificed from groups of control sham operated, UUO, and UUO+AKF-PD at day 7 and day 15. Total protein was extracted from the kidney samples and subjected to Western analysis of TGF-β. The protein loading was normalized with actin. Lane 1, control sham at day 7; lane 2, control sham at day 15; lane 3, UUO at day 7; lane 4, UUO+AKF-PD at day 7; lane 5, UUO at day 15; lane 6, UUO+AKF-PD at day 15. B. Comparison of the intensity of bands on a Western blot by densitometry. The bands were scanned by densitometer and expressed as a fold increase over control sham operated rat at day 7, which was taken as 1.
TGF-β is a pro inflammatory cytokine and its overproduction plays critical role in tissue fibrosis. Using UUO model, we analyzed the effect of AKF-PD on TGF-β protein expression by Western blot. […] Densitometry analyses of the intensity of the bands indicate that TGF-β protein expression in obstructed kidneys was increased by 4.9- and 6.5-fold than those in the Sham group on Days 7 and 15, respectively.

Setting [4] is: DN (diabetic) rats + AKF-PD 500 mg/kg per day p.o., 4 weeks, mean ± SEM (n = 6).

As to `Cc1ccc(=O)n(-c2ccccc2)c1` [PFD, pirfenidone, reference compound], in the assay with p38, the “LPS-induced p38 activation (phosphorylation)” value is “significantly blocked” and the “total p38 protein levels” value is listed as “No effects”. Further, the urinary protein excretion entry in [1] is given as “caused a decline”. Further, in the assay with TNF-α mRNA, the “inhibition of LPS-stimulated TNF-α mRNA synthesis” value is on record as “Approximately 50%” and the “inhibition on LPS-stimulated TNF-α mRNA synthesis” value is reported as “dose-dependent inhibition”. For the same molecule, the effect on proteinuria entry in [2] (clinical data, open-label trial) is on record as “does not have any effect”. Moreover, in assay [2] (with pirfenidone therapy, 18 patients, median of 13-month treatment, baseline period −0.61), the “monthly deterioration in GFR (median)” value is recorded as −0.45 ml/min per 1.73 m^2.

Take `Cc1ccc(=O)n(-c2cccc(F)c2)c1` [AKF-PD, 1-(3′-Fluorophenyl)-5-Methyl-2(1H)-Pyridone]: in the assay with TNF-α (30, 100, 300 μg/ml pre-treatment 4 h), the “inhibition on TNF-α protein levels” value is “dose-dependent inhibition”. Further, in the assay on TNF-α (Mus musculus, dose of 100 μg/ml, read-out: inhibition of secreted levels of TNF-α), the inhibition (commonly the change of the read-out against control, counted positive when it falls) at 100 µg/mL was 64%. Further, the inhibition at 300 µg/mL with TNF-α (Mus musculus, read-out: inhibition of cellular levels of TNF-α) was approximately 50%. The inhibition at 300 µg/mL in the assay on TNF-α (Mus musculus, read-out: inhibition of secreted levels of TNF-α) was 89%. In assay [3] (DN (diabetic) rats + AKF-PD 500 mg/kg per day p.o., 4 weeks, 24 h urine, mean ± SEM (n = 6)), the Urine output was 15.25 ± 1.75 mL. In assay [3] (setting [4]), the Blood urea nitrogen stood at 18.88 ± 1.50 mg/dL, the Serum creatinine is recorded as 0.75 ± 0.13 mg/dL and the Urinary albumin excretion is given as 6.10 ± 0.23 mg/dL. Further, the “renal dysfunction in diabetic rats” value in [3] (diabetic rats, 500 mg/kg per day from 4 to 8 weeks) is “significantly attenuated”. For the same molecule, the “Tubulointerstitial injury score (TIS)” value in the assay on rat UUO model (Day 7) is 2.64 ± 0.79 #. Besides, the “Tubulointerstitial injury score (TIS)” value with rat UUO model (Day 15) is 3.82 ± 0.43 #. Also, the “renal injury (tubulointerstitial injury scores and interstitial fibrosis expansion)” value with rat UUO model (P<0.05) was “ameliorated”. Moreover, in the assay with p38, the “LPS-induced p38 activation (phosphorylation)” value is listed as “significantly blocked” and the “total p38 protein levels” value was “No effects”. Moreover, the “proliferation of rat renal fibroblasts” value with rat renal fibroblasts is reported as “inhibit the proliferation”. In addition, in the assay on TNF-α mRNA, the “inhibition of LPS-stimulated TNF-α mRNA synthesis” value is “Approximately 50%” and the “inhibition on LPS-stimulated TNF-α mRNA synthesis” value is “dose-dependent inhibition”. Moreover, the “reduction of TGF-β protein expression” value in the assay with TGF-β (Day 7, UUO rats) stood at 55%. For the same molecule, the “reduction of TGF-β protein expression” value with TGF-β (Day 15, UUO rats) is 71%.
